Measured values published in patent publication US20230190685A1, “FORMULATION” (UNION Therapeutics A/S, priority 2020, published 2023).
pEC50: −log10 of the molar value.

What was measured:
Assay type in all cases: cell-based
[1] = tested on: European D614G strain of SARS-CoV-2 (BavPat1/2020)
SARS-CoV-2 D614G strain = tested on: SARS-CoV-2 D614G strain
[2] = tested on: SARS-CoV-2 (D614G strain); conditions: read-out: EC50, replication of SARS-CoV-2

O=C(Nc1ccc([N+](=O)[O-])cc1Cl)c1cc(Cl)ccc1O [niclosamide ethanolamine]
reduction of intracellular viral RNA level versus non-treated control [1]: 3 fold
pEC50 ([1]; read-out: EC50, apical infectious titer (TCID50)): 6.02
pEC50 (SARS-CoV-2 D614G strain): 7.22
pEC50 [2]: 7.00
